From US3966793A (priority 1964, dated 1976)
Where two headings read alike, the source gives them in different places.

What was measured:
[1] = test system: mice; test: Exploration test (mice); assay type: in vivo; settings: Mus musculus, ip, read-out: Exploration, 50% effective dose
Experimental: 5. Exploration test (mice)
This extremely simple test consists in placing a mouse at the center of a floor pierced with holes and in noting how many holes the mouse explores in 5 minutes. This test is carried out in a room in which complete silence is observed and which contains no person except the experimenter who is seated and still. It appeals to the curiosity of the animals. The doses of the compounds employed are, however, very small and considerably less than those required to impair movement. This simple test makes it possible to observe whether the compounds assayed produce a more or less pronounced lack of interest in the environment and it gives information which is interesting from the clinical point of view with regard to the treatment of anxiety and restlessness.

[2] = test system: mouse; test: Spontaneous motor activity in the mouse; assay type: in vivo; settings: Mus musculus, read-out: Spontaneous motor activity, 50% effective dose
From the text: (§1) 6. Spontaneous motor activity in the rat and mouse and provoked motor activity
(§2) The effect of drugs on voluntary movements of animals can be studied statistically by methods, the details of which will not be discussed here. The mouse, which is an extremely lively animal and moves about a great deal, is particularly suitable for this type of experiment.

[3] = test system: mouse; test: Mescaline provoked motor activity (M); assay type: in vivo; settings: PO, read-out: Mescaline provoked motor activity, 50% effective dose
From the text: as §1, §2
(§3) Moreover, this spontaneous mobility can be exacerbated by preventive administration to the animals of certain substances such as benzedrine, mescaline and ritaline.
(§4) The experimental results obtained by these methods give valuable information for clinical purposes with regard to the treatment of ambulatory psychomotor crises.

[4] = test system: central nervous system; test: Pharmacodynamic / central nervous system tests taken together; assay type: in vivo
From the text: A certain number of the compounds described in the present application have been studied with regard to their action on the central nervous system, as psycholeptics, myorrelaxants and tranquilizers. In addition, the acute toxicity has been determined for a number of these compounds.
It has thereby been possible to make quantitative comparisons of the activity of the different compounds for the different tests employed.

[5] = Reaction (pH) of aqueous solution; assay type: physicochemical
[6] = test system: mouse; test: Potentiation of narcosis (M); assay type: in vivo; settings: PO, read-out: Narcotic potentiation, 50% effective dose
From the text: 12. Potentiation of narcosis
Most psycholeptics are hypnotics in large doses, but many of them can, in small doses, without themselves producing any hypnosis, either prolong the time of sleep obtained with a true hypnotic (for example a barbiturate) or appreciably lower the dose of barbiturate required to obtain sleep.

[7] = test system: mice; test: Anti-convulsant activity (electric shock) (mice); assay type: in vivo; settings: Mus musculus, ip, read-out: Electric shock, 50% effective dose
From the text: 4. Anti-convulsant activity (electric shock) (mice)
The test consists in determining the intensity of the electric current required to produce a fatal shock in a batch of test animals.
Certain preventively administered compounds effectively protect a certain percentage of animals subjected to an electric current of an intensity which is fatal to untreated animals.

[8] = test system: mice; test: Anti-convulsant activity (anti-pentetrazole) (mice); assay type: in vivo; settings: mouse, pentetrazole 125 mg./kg. IP, read-out: Anti-pentetrazole, 50% effective dose
Experimental: 3. Anti-convulsant activity (anti-pentetrazole) (mice)
Pentetrazole, injected intraperitoneally in a dose of 125 mg./kg. produces fatal convulsions in 100% of the animals.
Certain compounds exert a protective action preventing convulsions and permitting survival.

[9] = test system: mouse; test: Morphine excitation (M); assay type: in vivo; settings: PO, read-out: Morphine excitation, 50% effective dose
From the text: In the mouse, the action of morphine is different but also manifested by marked central excitation.

[10] = test system: mice; test: Traction test (mice), myorelaxant activity; assay type: in vivo; settings: Mus musculus, read-out: Traction, 50% effective dose
From the text: This consists in observing when the treated animals are capable of retrieving a rod grasped by the front paws only. Inability to carry this out was interpreted as a sign of myorelaxant activity.

[11] = Acute toxicity (M) LD 50; settings: in vivo, mouse
[12] = test system: rats; test: Double box conditioning test (R); assay type: in vivo; settings: rat, PO; read-out: Double box conditioning, 50% effective dose
From the text: The test used consists in educating rats to avoid an electric current passed through the floor of a cage of two compartments when they change compartments. The animal is first warned by a lamp which lights up in the compartment through which the current is passing while the other is in relative darkness.
This test, which requires more or less daily training at the rate of 50 times for each rat, makes it possible to follow the animals and note their progress. The performances realized at the end of a certain time (3 weeks to 1 month of training) are fairly constant, the percentage of errors made by adequately gifted subjects being less than 10 and very often even zero.
One would imagine that disturbances produced in these performances which call upon the memory of animals would be of great importance for the choice of a new medicament. A deconditioning drug of sufficient intensity could have the result of partly depriving the patient of the idea of danger and would consequently require special surveillance of the sick persons.

[13] = Stability in aqueous solution; assay type: physicochemical; settings: compound A obtained
[14] = test system: male rat; test: Combativeness (rat); assay type: in vivo; settings: rat, read-out: Combativeness, 50% effective dose
From the text: It is possible to make a male rat aggressive towards another male rat enclosed in the same cage by passing an electric current of more or less high voltage through the floor of the cage.
This test, like the preceding one, can obviously give information of clinical value for the treatment of aggression diseases.

[15] = test system: mouse; test: Antistrychnine activity; assay type: in vivo; settings: po, read-out: Anti-strychnine, 50% effective dose
From the text: 7. Antistrychnine activity

[16] = test system: rat; test: Spontaneous motor activity in the rat; assay type: in vivo; settings: Rattus norvegicus, read-out: Spontaneous motor activity, 50% effective dose
From the text: as §1, §2

[17] = test system: mice; test: Balance test: rotating rod (mice) (Equilibration); assay type: in vivo; settings: Mus musculus, read-out: Equilibration, 50% effective dose
From the text: 2. Balance test: rotating rod (mice)
This test consists in observing whether the treated animals are capable of maintaining their balance on a horizontal rod kept in rotation.
Numerous neuroleptic compounds or tranquilizers disturb the equilibration reflex.

[18] = test system: rat; test: Benzedrine provoked motor activity (R); assay type: in vivo; settings: PO, read-out: Benzedrine provoked motor activity, 50% effective dose
From the text: as §1, §2, §3, §4

[19] = Solubility

## O=C([O-])C1N=C(c2ccccc2)c2cc(Cl)ccc2NC1=O.[K+] (centres unmarked) [4311 CB, 7-Chloro-2,3-dihydro-2-oxo-5-phenyl-1H-benzo[f]-1,4-diazepine-3-carboxylic acid, potassium salt]
[1]
  ED50: 5 mg/kg
[2]; ip
  ED50: 25 mg/kg
[2]; po
  ED50: 10 mg/kg
[3]
  ED50: 20 mg/kg
[4]; in vivo
  Activity compared with 4306: highly active but slightly less so than 4306
[4]; parenteral vs oral
  Activity, parenteral compared with oral administration: slightly less when administered parenterally than when administered orally
[5]
  Reaction / pH of aqueous solution: substantially neutral reaction
[6]
  ED50: 2 mg/kg
[7]
  ED50: 2.6 mg/kg
[8]; IP
  ED50: 2.9 mg/kg
[8]; PO
  ED50: 1.65 mg/kg
[9]
  ED50: 20 mg/kg
[10]; ip
  ED50: 1.75 mg/kg
[10]; po
  ED50: 1.35 mg/kg
[11]; IP
  LD50: 310 mg/kg
[11]; IV
  LD50: 220 mg/kg
[11]; PO
  LD50: 870 mg/kg
[11]; SC
  LD50: 450 mg/kg
[12]
  ED50: 10 mg/kg
[13]
  Decarboxylation on heating an aqueous solution: decarboxylated within a few minutes
[14]; IP
  ED50: 25 mg/kg
[14]; PO
  ED50: 25 mg/kg
[15]
  ED50: 20 mg/kg
[16]; ip
  ED50: 25 mg/kg
[16]; po
  ED50: 50 mg/kg
[17]; ip
  ED50: 4.5 mg/kg
[17]; po
  ED50: 5 mg/kg
[18]
  ED50: 50 mg/kg
[19]
  Solubility in water: completely soluble in water
